Tests used:
Settings in all cases: 48 h
NOMO1 [1] = experiment: AUC of viability dose-response curve (% viability x log10 dose units); higher = less sensitive
Summary of the method: (§1)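 Over 48 h at 37°C, leukemia cells in 1536-well plates (500 or 1000 cells/well), adapted to each medium, received library compounds in DMSO at 11 threefold doses from 47 μM to 0.79 nM. CellTiter-Glo One luminescence, normalised per plate to DMSO and cell-free wells, was fitted by a four-parameter log-logistic function of log10 dose. The area under the curve was then integrated by trapezoidal rule, after scaling curves above full viability and removing those that failed quality control.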

P12-Ichikawa [2] = experiment: as above
Summary of the method: as §1

SEM cells [3] = experiment: as above
Summary of the method: as §1

SEM cells [4] = experiment: cell viability relative to DMSO control; higher = less cytotoxic
Summary of the method: (§2)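 Library compounds in DMSO were pin-dosed in an 11-point threefold series (47 μM to 0.79 nM) onto leukemia cells in 1536-well plates (5 μl). Plates held 500 cells/well of NOMO1 or SEM or 1000 cells/well of P12-Ichikawa, each adapted for at least four passages in each medium. Luminescence was read with CellTiter-Glo One after 48 h at 37°C. Viability means the per-plate percentage relative to DMSO wells, using cell-free wells as background.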

NOMO1 [5] = experiment: as above
Summary of the method: as §2

P12-Ichikawa [6] = experiment: as above
Summary of the method: as §2

CC(C)(C)c1nc(-c2cccc(N[S+](=O)([O-])c3c(F)cccc3F)c2F)c(-c2ccnc(N)n2)s1
AUC of viability dose-response curve
Settings	NOMO1 [1]	P12-Ichikawa [2]	SEM cells [3]
HPLM + 10% dialyzed FBS	423	428	439
RPMI 5 mM glucose + 10% FBS	447	409	430
RPMI 5 mM glucose + 10% dialyzed FBS	434	385	425

CC(C)(O)CCc1ccc(OCc2cc(-c3cccc(OC(F)F)c3)c3ncccc3c2)cc1
SEM cells [4], HPLM + 10% dialyzed FBS
Settings	cell viability [%]
0.000781 µM	96
0.00234 µM	98.7
0.00702 µM	108
0.0211 µM	118
0.0632 µM	113
0.19 µM	126
0.569 µM	115
1.71 µM	127
5.12 µM	137
15.4 µM	119
46.1 µM	134

AUC of viability dose-response curve
Settings	NOMO1 [1]	P12-Ichikawa [2]	SEM cells [3]
HPLM + 10% dialyzed FBS	468	466	435
RPMI 5 mM glucose + 10% FBS	457	457	445
RPMI 5 mM glucose + 10% dialyzed FBS	460	456	469

O=C1NCCc2[nH]c(-c3ccncc3)cc21
SEM cells [4], HPLM + 10% dialyzed FBS
Settings	cell viability [%]
0.000781 µM	106
0.00234 µM	118
0.00702 µM	119
0.0211 µM	128
0.0632 µM	133
0.19 µM	140
0.569 µM	147
1.71 µM	149
5.12 µM	149
15.4 µM	41.2
46.1 µM	8.55

AUC of viability dose-response curve
Settings	NOMO1 [1]	P12-Ichikawa [2]	SEM cells [3]
HPLM + 10% dialyzed FBS	428	433	421
RPMI 5 mM glucose + 10% FBS	439	428	423
RPMI 5 mM glucose + 10% dialyzed FBS	431	426	430

CN(C)c1ccc2nc3ccc(N(C)C)cc3[s+]c2c1
cell viability [%]
Settings	NOMO1 [5]	P12-Ichikawa [6]	SEM cells [4]
HPLM + 10% dialyzed FBS, 0.000781 µM	115	99.5	89.6
HPLM + 10% dialyzed FBS, 0.00234 µM	94.5	105	51.3
HPLM + 10% dialyzed FBS, 0.00702 µM	122	109	99.7
HPLM + 10% dialyzed FBS, 0.0211 µM	97.9	105	104
HPLM + 10% dialyzed FBS, 0.0632 µM	106	109	104
HPLM + 10% dialyzed FBS, 0.19 µM	90.7	113	117
HPLM + 10% dialyzed FBS, 0.569 µM	102	111	114
HPLM + 10% dialyzed FBS, 1.71 µM	91.1	102	102
HPLM + 10% dialyzed FBS, 5.12 µM	73.2	59.7	97
HPLM + 10% dialyzed FBS, 15.4 µM	25.9	10.9	18.6
HPLM + 10% dialyzed FBS, 46.1 µM	12.1	3.04	5.42
RPMI 5 mM glucose + 10% FBS, 0.000781 µM	96	95.6	82.6
RPMI 5 mM glucose + 10% FBS, 0.00234 µM	91.9	106	44.9
RPMI 5 mM glucose + 10% FBS, 0.00702 µM	89.2	96.7	89.8
RPMI 5 mM glucose + 10% FBS, 0.0211 µM	92.1	109	97.6
RPMI 5 mM glucose + 10% FBS, 0.0632 µM	93.4	110	91.1
RPMI 5 mM glucose + 10% FBS, 0.19 µM	93.6	124	111
RPMI 5 mM glucose + 10% FBS, 0.569 µM	100	115	79.7
RPMI 5 mM glucose + 10% FBS, 1.71 µM	86.4	98.5	85.7
RPMI 5 mM glucose + 10% FBS, 5.12 µM	78.1	60.3	87.2
RPMI 5 mM glucose + 10% FBS, 15.4 µM	7.62	8	73.7
RPMI 5 mM glucose + 10% FBS, 46.1 µM	3.06	2.12	6.3
RPMI 5 mM glucose + 10% dialyzed FBS, 0.000781 µM	102	91.4	86.7
RPMI 5 mM glucose + 10% dialyzed FBS, 0.00234 µM	99.7	106	38.2
RPMI 5 mM glucose + 10% dialyzed FBS, 0.00702 µM	99.6	98.2	80
RPMI 5 mM glucose + 10% dialyzed FBS, 0.0211 µM	87.4	96.4	89.2
RPMI 5 mM glucose + 10% dialyzed FBS, 0.0632 µM	94.2	104	92.7
RPMI 5 mM glucose + 10% dialyzed FBS, 0.19 µM	86.7	116	91.2
RPMI 5 mM glucose + 10% dialyzed FBS, 0.569 µM	102	114	90.1
RPMI 5 mM glucose + 10% dialyzed FBS, 1.71 µM	86.5	94.9	91.1
RPMI 5 mM glucose + 10% dialyzed FBS, 5.12 µM	65	71.3	78.7
RPMI 5 mM glucose + 10% dialyzed FBS, 15.4 µM	10.1	12.8	46.8
RPMI 5 mM glucose + 10% dialyzed FBS, 46.1 µM	3.9	2.16	6.19

AUC of viability dose-response curve
Settings	HPLM + 10% dialyzed FBS	RPMI 5 mM glucose + 10% FBS	RPMI 5 mM glucose + 10% dialyzed FBS
NOMO1 [1]	401	374	376
P12-Ichikawa [2]	387	386	395

C=C1/C(=C/C=C2\CCCC3(C)[C@@H]([C@H](C)/C=C/C=C/C(O)(CC)CC)CC[C@@H]23)C[C@@H](O)C[C@@H]1O (stereo partly specified)
AUC of viability dose-response curve
Settings	NOMO1 [1]	P12-Ichikawa [2]	SEM cells [3]
HPLM + 10% dialyzed FBS	437	463	463
RPMI 5 mM glucose + 10% FBS	422	451	460
RPMI 5 mM glucose + 10% dialyzed FBS	445	455	448

O=C(/C=C/c1ccc(CN(CCO)CCc2c[nH]c3ccccc23)cc1)NO
AUC of viability dose-response curve
Settings	NOMO1 [1]	P12-Ichikawa [2]	SEM cells [3]
HPLM + 10% dialyzed FBS	296	275	262
RPMI 5 mM glucose + 10% FBS	295	271	261
RPMI 5 mM glucose + 10% dialyzed FBS	303	277	269

C[C@@H]1C/C=C/C=C/C=C/C=C/[C@@H](O[C@@H]2O[C@H](C)[C@@H](O)[C@H](N)[C@@H]2O)C[C@@H]2O[C@](O)(C[C@@H](O)C[C@@H]3O[C@H]3/C=C/C(=O)O1)C[C@H](O)[C@H]2C(=O)O
SEM cells [4], HPLM + 10% dialyzed FBS
Settings	cell viability [%]
0.000781 µM	108
0.00234 µM	120
0.00702 µM	103
0.0211 µM	129
0.0632 µM	131
0.19 µM	119
0.569 µM	124
1.71 µM	106
5.12 µM	115
15.4 µM	120
46.1 µM	114

AUC of viability dose-response curve
Settings	NOMO1 [1]	P12-Ichikawa [2]	SEM cells [3]
HPLM + 10% dialyzed FBS	449	439	475
RPMI 5 mM glucose + 10% FBS	460	466	461
RPMI 5 mM glucose + 10% dialyzed FBS	457	461	462

COc1ccc2cc3[n+](cc2c1OC)CCc1cc2c(cc1-3)OCO2
AUC of viability dose-response curve
Settings	NOMO1 [1]	P12-Ichikawa [2]	SEM cells [3]
HPLM + 10% dialyzed FBS	431	429	445
RPMI 5 mM glucose + 10% FBS	441	390	437
RPMI 5 mM glucose + 10% dialyzed FBS	442	411	428

COc1ccc(COc2cc3oc(=O)c4cc(C(C)O)ccc4c3cc2OC)cc1 (stereo unspecified)
AUC of viability dose-response curve
Settings	NOMO1 [1]	P12-Ichikawa [2]	SEM cells [3]
HPLM + 10% dialyzed FBS	446	457	451
RPMI 5 mM glucose + 10% FBS	449	444	450
RPMI 5 mM glucose + 10% dialyzed FBS	455	434	461

CC(C)(O)[C@H]1CC[C@@](C)([C@H]2[C@@H](O)C[C@@]3(C)[C@@H]4C[C@H](O[C@@H]5O[C@H](CO)[C@@H](O)[C@H](O)[C@H]5O)[C@H]5C(C)(C)[C@@H](O[C@@H]6OC[C@@H](O)[C@H](O)[C@H]6O)CC[C@@]56C[C@@]46CC[C@]23C)O1
cell viability [%], SEM cells [4]
Settings	HPLM + 10% dialyzed FBS	RPMI 5 mM glucose + 10% FBS
0.000781 µM	118	119
0.00234 µM	118	123
0.00702 µM	121	133
0.0211 µM	124	120
0.0632 µM	128	124
0.19 µM	126	123
0.569 µM	129	130
1.71 µM	117	121
5.12 µM	89.2	108
15.4 µM	109	105
46.1 µM	106	128

AUC of viability dose-response curve
Settings	NOMO1 [1]	P12-Ichikawa [2]	SEM cells [3]
HPLM + 10% dialyzed FBS	464	456	454
RPMI 5 mM glucose + 10% FBS	446	451	465
RPMI 5 mM glucose + 10% dialyzed FBS	449	450	466

Reference: the supplement of paper PMC11451515
